Results reported in PMC11017401, “Novel molecular mechanism driving neuroprotection after soluble epoxide hydrolase inhibition: Insights for Alzheimer's disease therapeutics” (CNS Neuroscience & Therapeutics, 2023).
“Also recorded” adds a separate entry of the source. Marks after values point to notes of the source that are not given here.

Columns and labels:
[1] = system: Human primary astrocytes; assay: T/I/C-induced reactive astrocyte conversion (qPCR, western blot); format: cell-based
Protocol: A total quantity of 1 × 10^6 astrocytes isolated from CD1 mouse brain (ScienCell #M1800) or primary human astrocyte (ScienCell #1800) were seeded onto PLL‐coated 6‐well culture plates in astrocyte medium (ScienCell #1831 or #1801).
Astrocytes cultures were incubated in serum‐free condition for 24 h and pretreated for 30 min with UB‐SCG‐51 or p‐eIF2α signal inhibitor (Sigma, SML0843), followed by recombinant T/I/C: IL‐1α (3 ng/mL, Peprotech, Thermo Fisher), TNF‐α (30 ng/mL, R&D), C1q (400 ng/mL, R&D), or PBS for 24 h.
Microglia or astrocyte proteins were extracted by RIPA buffer (Thermo Fisher Scientific Inc.). Extracted proteins were separated by SDS/PAGE and subsequently transferred to nitrocellulose membranes (Bio‐Rad). Membranes were blocked in 3% BSA for 1 h at RT and incubated with primary antibodies (details in resource and reagent Table) overnight at 4°C, followed by incubation with Highly Cross‐Adsorbed Secondary Antibody, Alexa Fluor Plus 800 or 680 (Life Technologies) for 1 h at RT. Membranes visualized on Odyssey (LI‐COR Biosciences).
Microglia or astrocyte total RNAs were isolated by using a Quick‐RNA kit (Zymo Research, Inc.). The concentration of total RNAs was measured using a UV–Vis spectrophotometer (NanoDrop8000, Thermo Fisher Scientific Inc.) and reverse‐transcribed with a high‐capacity cDNA reverse transcription kit (Applied Biosystems). Gene expression was quantified by Fast SYBR green real‐time PCR on a Quantstudio 5 system (Applied Biosystems). Data were analyzed according to the comparative Ct method. Gapdh was used to normalize the amounts of cDNA within each sample.

[2] = system: PTZ-induced seizures in mice; assay: Pentylenetetrazol (PTZ) seizure test
Protocol: Then, a standard acute test involving the administration of pro‐convulsant PTZ was employed.[32], [33] Furthermore, the PTZ assay is considered highly translatable from mice to humans. In the test, PTZ was administered at 85 mg/Kg by the subcutaneous route and the time to onset of first clonic seizure, an average of clonic seizures, tonic seizure latency and lethality were monitored for 30 min.

[3] = 5 mg/Kg by gavage 1 h prior to PTZ 85 mg/Kg s.c.

| SMILES | C3 gene expression levels in co-treatment ([1]; T/I/C-activated astrocytes, SML0843 + UB-SCG-51, T/I/C alone about 10x control) | C3 gene expression in T/I/C-activated astrocytes, single treatment ([1]; human primary astrocytes, T/I/C 24 h) | effect of co-treatment with p-eIF2α signal inhibitor (SML0843) on the UB-SCG-51 effect on C3 gene expression ([1]; human primary astrocytes, T/I/C, SML0843 + UB-SCG-51) | onset of tonic seizures induced by PTZ vs vehicle ([2]; 5 mg/Kg by gavage) | Average clonic seizure (SEM) [2, 3] | Protected from tonic/total (Mortality) [2, 3] | Mean time to clonic seizure latency in seconds (SEM) ([2]; 5 mg/Kg by gavage 1 h prior to PTZ 85 mg/Kg s.c., monitored 30 min) | average seizure score ([2]; 5 mg/Kg by gavage, group comparison) |
| --- | --- | --- | --- | --- | --- | --- | --- | --- |
| O=C(COc1ccc(Cl)cc1)NC1CCC(NC(=O)COc2ccc(Cl)cc2)CC1 (centres unmarked) [SML0843] | 2 x fold | did not modify; also recorded: did not affect | partially block | – | – | – | – | – |
| CCC(=O)N1CCC(NC(=O)Nc2ccc(OC(F)(F)F)cc2)CC1 [TPPU] | – | – | – | delay the onset of tonic seizures | 3.67 (0.56)** | 5/6^**** | 605.33 (144.78) seconds | significant reduction |
